Molecular target: T4 polynucleotide kinase (T4 PNK) (Tequatrovirus T4, UniProt P06855)
Format: biochemical

T4 polynucleotide kinase (T4 PNK), sequence (P06855 whole entry): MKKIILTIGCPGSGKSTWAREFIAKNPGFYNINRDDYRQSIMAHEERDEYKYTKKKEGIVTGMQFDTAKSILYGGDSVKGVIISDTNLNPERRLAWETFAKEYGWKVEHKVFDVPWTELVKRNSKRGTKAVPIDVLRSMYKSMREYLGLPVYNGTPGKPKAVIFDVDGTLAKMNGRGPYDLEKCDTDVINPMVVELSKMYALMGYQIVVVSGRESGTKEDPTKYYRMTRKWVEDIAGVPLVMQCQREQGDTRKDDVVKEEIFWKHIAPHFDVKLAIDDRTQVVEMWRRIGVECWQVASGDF

- IC50: 18 mM
Structure (SMILES): O=S(=O)(O)O [(NH4)2SO4]

From PMC9090566 (RSC Advances, 2018)
